Measured values as given in PubChem BioAssay (NCI).
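Compound exposure: 48 hours, 5 concentrations, 96-well plates. The concentration for 50% growth inhibition is given as GI50. The concentration for full growth arrest is given as TGI.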

How the values were obtained:
Test in all cases: inhibition of tumour cell growth, NCI panel, 48 h
MDA-MB-435 = test system: MDA-MB-435
MALME-3M melanoma = test system: MALME-3M melanoma
OVCAR-5 ovarian = test system: OVCAR-5 ovarian
CCRF-CEM leukemia = test system: CCRF-CEM leukemia
A549 NSCLC = test system: A549 NSCLC
BT-549 breast = test system: BT-549 breast
EKVX NSCLC = test system: EKVX NSCLC
HCC-2998 colon = test system: HCC-2998 colon
U251 CNS = test system: U251 CNS
MDA-MB-231 breast = test system: MDA-MB-231 breast

Row | SMILES | GI50 (MDA-MB-435) [µM] | TGI (MDA-MB-435) [µM] | GI50 (MALME-3M melanoma) [µM] | TGI (MALME-3M melanoma) [µM] | GI50 (OVCAR-5 ovarian) [µM] | TGI (OVCAR-5 ovarian) [µM] | GI50 (CCRF-CEM leukemia) [µM] | TGI (CCRF-CEM leukemia) [µM] | GI50 (A549 NSCLC) [µM] | TGI (A549 NSCLC) [µM] | GI50 (BT-549 breast) [µM] | TGI (BT-549 breast) [µM] | GI50 (EKVX NSCLC) [µM] | TGI (EKVX NSCLC) [µM] | GI50 (HCC-2998 colon) [µM] | TGI (HCC-2998 colon) [µM] | GI50 (U251 CNS) [µM] | TGI (U251 CNS) [µM] | GI50 (MDA-MB-231 breast) [µM] | TGI (MDA-MB-231 breast) [µM]
1 | COc1ccc(-c2c(Nc3ccccn3)nc3c(C4=CCCCC4)c(-c4ccccc4)[nH]n3c2=O)cc1 | 2.71 | > 100 | 3.93 | 60.2 | 5.52 | > 100 | 1.22 | 6.58 | 1.94 | > 100 | 1.88 | 17.6 | 2.97 | 36.9 | 3.7 | > 100 | 1.95 | 17.9 | 2.73 | 16.5
2 | CCCCCCCCCCCCOC1C(C(COC2OC(C(O)CO)C3OC(C)(C)OC23)OC(=O)Nc2ccccc2)OC2OC(C)(C)OC21 (centres undefined) | 7.72 | 21.6 | 9.2 | 23.2 | 4.84 | 16.3 | – | 6.66 | 6.08 | 20.6 | 10.5 | 23.8 | 9.94 | 22.2 | 5.39 | 10.4 | 5.44 | 18 | 8.7 | 21.1
3 | COc1cc2c(cc1C)NC(=O)/C2=C\c1ccc(Oc2ccccc2)cc1 | 17.8 | 38.1 | 20.1 | 41.1 | 18.7 | 36.5 | 8.36 | 27.5 | 14.7 | 33.4 | 14.2 | 28.3 | 12.9 | 27 | 16.3 | 29.9 | 12.8 | 25.4 | 18.2 | 37.5
4 | COc1cc(/C=C/C(=O)c2nc3cc(F)ccc3nc2C)cc(OC)c1OC | 3.55 | > 100 | 1.71 | > 100 | > 100 | > 100 | 1.85 | > 21 | 7.37 | > 100 | 8.12 | > 100 | > 78.7 | > 100 | > 100 | > 100 | 3.54 | > 100 | 8.49 | > 100
5 | CC1=C(C(=O)Nc2ccc3[nH]ncc3c2)C(c2ccc(F)cc2)N=C(c2ccc(C(F)(F)F)nc2)N1 (centres undefined) | 4.97 | 12 | > 16.5 | > 25 | > 25 | > 25 | 17 | > 25 | 13.4 | > 25 | 5.28 | 18.2 | 6.19 | > 25 | > 25 | > 25 | 17.1 | > 25 | 10.1 | > 25
